Patent US20260265248A1, “NOVEL PD-L1 INHIBITORS” (AFFIRMA BIOTECH S. L., priority 2023, published 2026)

target: T1, PD-1/PD-L1 (Homo sapiens, UniProt Q9NZQ7); experiment: PD1-PDL1 HTRF assay; details: PD-1/PD-L1 homogenous time-resolved fluorescence (HTRF) binding assay; Tag1-PDL1 5 nM, Tag2-PD1 50 nM
T1 construct: purchased CisBio
How it was run: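 Compound (8 concentrations) was preincubated 15 min at room temperature with Tag1-PD-L1 and Tag2-PD-1, added as 5 nM and 50 nM solutions. Eu-labelled anti-Tag1 and XL665-labelled anti-Tag2 were then added for 1 h, and the 665/620 nm ratio (×10^4; excitation 320 nm) was fitted to the Hill equation for IC50.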

T1 sequence (Q9NZQ7 19-238 limits assumed): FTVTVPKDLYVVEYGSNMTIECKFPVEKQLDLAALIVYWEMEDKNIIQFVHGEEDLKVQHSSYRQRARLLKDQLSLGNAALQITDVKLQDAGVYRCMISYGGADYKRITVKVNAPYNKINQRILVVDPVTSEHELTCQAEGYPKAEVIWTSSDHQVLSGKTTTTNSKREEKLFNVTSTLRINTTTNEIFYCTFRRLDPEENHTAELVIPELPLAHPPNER

Row | IC50 [µM] | SMILES
1 | 0.01 to 0.1 | CC(C)(CO)NCc1ccc(-c2cccc(-c3cccc(-c4ccn5nc(CNCCO)nc5c4)c3Cl)c2Cl)cc1 [Example 112, 2-(((2′,2″-dichloro-3″-(2-(((2-hydroxyethyl)amino)methyl)-[1,2,4]triazolo[1,5-a]pyridin-7-yl)-[1,1′:3′,1″-terphenyl]-4-yl)methyl)amino)-2-methylpropan-1-ol]
2 | ≤ 0.01 | OCCNCc1nc2cc(-c3cccc(-c4cccc(-c5ccc(CN6CCC[C@H]6CO)cc5)c4Cl)c3Cl)ccn2n1 [Example 113, (S)-2-(((7-(2,2′-dichloro-4″-((2-(hydroxymethyl)pyrrolidin-1-yl)methyl)-[1,11:31,1″-terphenyl]-3-yl)-[1,2,4]triazolo[1,5-a]pyridin-2-yl)methyl)amino)ethan-1-ol]
3 | ≤ 0.01 | OCCNCc1nc2cc(-c3cccc(-c4cccc(-c5ccc(CN6CCC[C@@H]6CO)cc5)c4Cl)c3Cl)ccn2n1 [Example 114, (R)-2-(((7-(2,2′-dichloro-4″-((2-(hydroxymethyl)pyrrolidin-1-yl)methyl)-[1,11:3′,1″-terphenyl]-3-yl)-[1,2,4]triazolo [1,5-a]pyridin-2-yl)methyl)amino)ethan-1-ol]
4 | ≤ 0.01 | OCCCNCc1ccc(-c2cccc(-c3cccc(-c4ccn5nc(CNCCO)nc5c4)c3Cl)c2Cl)cc1 [Example 115, 3-(((21,2″-dichloro-3″-(2-(((2-hydroxyethyl)amino)methyl)-[1,2,4]triazolo[1,5-a]pyridin-7-yl)-[1,11:31,1″-terphenyl]-4-yl)methyl)amino)propan-1-ol]
5 | ≤ 0.01 | CC(C)(CO)NCc1nc2cc(-c3cccc(-c4cccc(-c5ccc(CNCCO)cc5)c4Cl)c3Cl)ccn2n1 [Example 116, 2-(((7-(2,2′-dichloro-4″-(((2-hydroxyethyl)amino)methyl)-[1,1′:31,1″-terphenyl]-3-yl)-[1,2,4]triazolo[1,5-a]pyridin-2-yl)methyl)amino)-2-methylpropan-1-ol]
